In the supplement of paper PMC10307832:

How the values were obtained:
Test in all cases: relative viability (nuclei count vs DMSO), 5 days (fraction); higher = more cells survive
LU99A = tested on: LU99A
Outline: (§1)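 Five library-drug doses in √10 steps were combined with a fixed anchor-drug dose, or a single drug was given alone, by pin tool to lung cancer cell lines in 1536-well plates the day after seeding. Nuclei were stained and counted after 5 days. Relative viability is the nuclei count in treated wells over that in vehicle wells, taken as the median of duplicate plates.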

NCI-H2347 = tested on: NCI-H2347
Outline: as §1

LC-2-ad = tested on: LC-2-ad
Outline: as §1

NCI-H2085 = tested on: NCI-H2085
Outline: as §1

SW 1573 = tested on: SW 1573
Outline: as §1

HCC-78 = tested on: HCC-78
Outline: as §1

PC-14 = tested on: PC-14
Outline: as §1

UMC-11 = tested on: UMC-11
Outline: as §1

HARA = tested on: HARA
Outline: as §1

NCI-H1355 = tested on: NCI-H1355
Outline: as §1

NCI-H2023 = tested on: NCI-H2023
Outline: as §1

NCI-H2126 = tested on: NCI-H2126
Outline: as §1

NCI-H1651 = tested on: NCI-H1651
Outline: as §1

NCI-H358 = tested on: NCI-H358
Outline: as §1

ABC-1 = tested on: ABC-1
Outline: as §1

NCI-H1993 = tested on: NCI-H1993
Outline: as §1

COR-L23 = tested on: COR-L23
Outline: as §1

NCI-H650 = tested on: NCI-H650
Outline: as §1

NCI-H838 = tested on: NCI-H838
Outline: as §1

EPLC-272H = tested on: EPLC-272H
Outline: as §1

NCI-H1915 = tested on: NCI-H1915
Outline: as §1

HCC-15 = tested on: HCC-15
Outline: as §1

SMILES: Oc1nc(-c2ccc(C(F)(F)F)cc2)nc2c1CSCC2 [XAV939] + CS(=O)(=O)CCNCc1ccc(-c2ccc3ncnc(Nc4ccc(OCc5cccc(F)c5)c(Cl)c4)c3c2)o1 [Lapatinib] (partner 2 µM)
- relative viability (LU99A; first compound 0.08 µM): 0.964
- relative viability (LU99A; first compound 0.253 µM): 0.851
- relative viability (LU99A; first compound 0.8 µM): 0.995
- relative viability (LU99A; first compound 2.53 µM): 0.939
- relative viability (NCI-H2347; first compound 0.08 µM): 0.944
- relative viability (NCI-H2347; first compound 0.253 µM): 0.708
- relative viability (NCI-H2347; first compound 0.8 µM): 0.805
- relative viability (NCI-H2347; first compound 2.53 µM): 0.672
- relative viability (LC-2-ad; first compound 0.08 µM): 0.886
- relative viability (LC-2-ad; first compound 0.253 µM): 0.749
- relative viability (LC-2-ad; first compound 0.8 µM): 0.954
- relative viability (LC-2-ad; first compound 2.53 µM): 0.862
- relative viability (NCI-H2085; first compound 0.08 µM): 0.692
- relative viability (NCI-H2085; first compound 0.253 µM): 0.699
- relative viability (NCI-H2085; first compound 0.8 µM): 0.743
- relative viability (NCI-H2085; first compound 2.53 µM): 0.649
- relative viability (SW 1573; first compound 0.08 µM): 1.11
- relative viability (SW 1573; first compound 0.253 µM): 0.908
- relative viability (SW 1573; first compound 0.8 µM): 1.07
- relative viability (SW 1573; first compound 2.53 µM): 0.983
- relative viability (HCC-78; first compound 0.08 µM): 0.868
- relative viability (HCC-78; first compound 0.253 µM): 0.508
- relative viability (HCC-78; first compound 0.8 µM): 0.326
- relative viability (HCC-78; first compound 2.53 µM): 0.457
- relative viability (PC-14; first compound 0.08 µM): 0.301
- relative viability (PC-14; first compound 0.253 µM): 0.307
- relative viability (PC-14; first compound 0.8 µM): 0.262
- relative viability (PC-14; first compound 2.53 µM): 0.266
- relative viability (UMC-11; first compound 0.08 µM): 1.15
- relative viability (UMC-11; first compound 0.253 µM): 0.742
- relative viability (UMC-11; first compound 0.8 µM): 0.97
- relative viability (UMC-11; first compound 2.53 µM): 0.921
- relative viability (HARA; first compound 0.08 µM): 0.73
- relative viability (HARA; first compound 0.253 µM): 0.419
- relative viability (HARA; first compound 0.8 µM): 0.402
- relative viability (HARA; first compound 2.53 µM): 0.606
- relative viability (NCI-H1355; first compound 0.08 µM): 1.02
- relative viability (NCI-H1355; first compound 0.253 µM): 0.857
- relative viability (NCI-H1355; first compound 0.8 µM): 0.875
- relative viability (NCI-H1355; first compound 2.53 µM): 0.729
- relative viability (NCI-H2023; first compound 0.08 µM): 0.737
- relative viability (NCI-H2023; first compound 0.253 µM): 0.723
- relative viability (NCI-H2023; first compound 0.8 µM): 0.674
- relative viability (NCI-H2023; first compound 2.53 µM): 0.622
- relative viability (NCI-H2126; first compound 0.08 µM): 0.739
- relative viability (NCI-H2126; first compound 0.253 µM): 0.583
- relative viability (NCI-H2126; first compound 0.8 µM): 0.667
- relative viability (NCI-H2126; first compound 2.53 µM): 0.585
- relative viability (NCI-H1651; first compound 0.08 µM): 0.822
- relative viability (NCI-H1651; first compound 0.253 µM): 0.758
- relative viability (NCI-H1651; first compound 0.8 µM): 0.904
- relative viability (NCI-H1651; first compound 2.53 µM): 0.857
- relative viability (NCI-H358; first compound 0.08 µM): 0.502
- relative viability (NCI-H358; first compound 0.253 µM): 0.469
- relative viability (NCI-H358; first compound 0.8 µM): 0.494
- relative viability (NCI-H358; first compound 2.53 µM): 0.434
- relative viability (ABC-1; first compound 0.08 µM): 1.34
- relative viability (ABC-1; first compound 0.253 µM): 1.08
- relative viability (ABC-1; first compound 0.8 µM): 1.26
- relative viability (ABC-1; first compound 2.53 µM): 0.657
- relative viability (NCI-H1993; first compound 0.8 µM): 0.866
- relative viability (NCI-H1993; first compound 2.53 µM): 0.702
- relative viability (COR-L23; first compound 0.08 µM): 1.04
- relative viability (COR-L23; first compound 0.253 µM): 0.924
- relative viability (COR-L23; first compound 0.8 µM): 0.932
- relative viability (COR-L23; first compound 2.53 µM): 0.89
- relative viability (NCI-H650; first compound 0.08 µM): 0.868
- relative viability (NCI-H650; first compound 0.253 µM): 0.957
- relative viability (NCI-H650; first compound 0.8 µM): 1
- relative viability (NCI-H650; first compound 2.53 µM): 0.893
- relative viability (NCI-H838; first compound 0.08 µM): 1.13
- relative viability (NCI-H838; first compound 0.253 µM): 0.918
- relative viability (NCI-H838; first compound 0.8 µM): 0.949
- relative viability (NCI-H838; first compound 2.53 µM): 0.767
- relative viability (EPLC-272H; first compound 0.08 µM): 1.06
- relative viability (EPLC-272H; first compound 0.253 µM): 0.893
- relative viability (EPLC-272H; first compound 0.8 µM): 1
- relative viability (EPLC-272H; first compound 2.53 µM): 0.864
- relative viability (NCI-H1915; first compound 0.08 µM): 1.13
- relative viability (NCI-H1915; first compound 0.253 µM): 0.934
- relative viability (NCI-H1915; first compound 0.8 µM): 1.05
- relative viability (NCI-H1915; first compound 2.53 µM): 0.993
- relative viability (HCC-15; first compound 0.08 µM): 1.02
- relative viability (HCC-15; first compound 0.253 µM): 0.774
- relative viability (HCC-15; first compound 0.8 µM): 0.829
- relative viability (HCC-15; first compound 2.53 µM): 0.806
